From ChEMBL document CHEMBL1156052, “Discovery of 1-[4-(3-chlorophenylamino)-1-methyl-1H-pyrrolo[3,2-c]pyridin-7-yl]-1-morpholin-4-ylmethanone (GSK554418A), a brain penetrant 5-azaindole CB2 agonist for the treatment of chronic pain” (J Med Chem, 2009)
Values after ≈ are worked out from the molar mass of the structure shown. Active and inactive are the calls of the source. The rule behind the calls is not given here.

Legend:
[1] = target: D(1A) dopamine receptor (Homo sapiens) (UniProt P21728); test: Binding affinity to human dopamine D1 receptor at 1 uM
[2] = target: Endothelin-1 receptor (Homo sapiens) (UniProt P25101); test: Binding affinity to human ETA receptor at 1 uM
[3] = Binding affinity to GABA receptor at 1 uM
[4] = target: C-X-C chemokine receptor type 2 (Homo sapiens) (UniProt P25025); test: Binding affinity to human CXCR2 receptor at 1 uM
[5] = target: Melanocortin receptor 4 (Homo sapiens) (UniProt P32245); test: Binding affinity to human MC4 receptor at 1 uM
[6] = target: Melatonin receptor type 1A (Homo sapiens) (UniProt P48039); test: Binding affinity to human ML1 receptor at 1 uM
[7] = target: Muscarinic acetylcholine receptor M1 (Homo sapiens) (UniProt P11229); test: Binding affinity to human muscarinic M1 receptor at 1 uM
[8] = target: Muscarinic acetylcholine receptor M2 (Homo sapiens) (UniProt P08172); test: Binding affinity to human muscarinic M2 receptor at 1 uM
[9] = target: Muscarinic acetylcholine receptor M3 (Homo sapiens) (UniProt P20309); test: Binding affinity to human muscarinic M3 receptor at 1 uM
[10] = target: Muscarinic acetylcholine receptor M4 (Homo sapiens) (UniProt P08173); test: Binding affinity to human muscarinic M4 receptor at 1 uM
[11] = target: Substance-K receptor (Homo sapiens) (UniProt P21452); test: Binding affinity to human NK2 receptor at 1 uM
[12] = Oral bioavailability in Sprague-Dawley rat at 2 mg/kg after 0.8 hrs; assay type: ADME, organism-based; details: in vivo
[13] = Drug level in Sprague-Dawley rat blood at 2 mg/kg, po after 0.8 hrs; assay type: ADME, organism-based; design: dose 2 mg/kg, route oral; details: read-out: Drug uptake
Rattus norvegicus [14] = test: Antihyperalgesic activity in complete Freund's adjuvant rat model of inflammatory pain assessed as reversal of hypersensitivity at 0.1 mg/kg, po administered as single dose measured after 1 hr; assay type: functional, organism-based; design: dose 0.1 mg/kg
[15] = Drug level in blood of complete Freund's adjuvant rat model of inflammatory pain at 0.1 mg/kg, po administered as single dose measured after 1 hr; assay type: ADME, organism-based; design: dose 0.1 mg/kg, route oral; details: read-out: Drug uptake
Rattus norvegicus [16] = test: Antihyperalgesic activity in complete Freund's adjuvant rat model of inflammatory pain assessed as reversal of hyperalgesia at 1 mg/kg, po administered as single dose; assay type: functional, organism-based; design: dose 1 mg/kg
Rattus norvegicus [17] = test: Antihyperalgesic activity in complete Freund's adjuvant rat model of inflammatory pain assessed as reversal of hyperalgesia at 1 mg/kg, po administered as single dose in presence of 15 mg/kg, ip cannabinoid CB2 receptor antagonsit AM630; assay type: functional, organism-based
[18] = Ratio of drug level in brain to blood in Sprague-Dawley rat at 0.4 mg/kg/hr, iv up to 12 hrs; assay type: ADME, organism-based; design: route intravenous
Rattus norvegicus [19] = test: Analgesic activity in rat joint model of chronic pain assessed as reversal of hypersensitivity at 10 mg/kg, po BID for 5 days; assay type: functional, organism-based; design: dose 10 mg/kg
[20] = Drug level in blood of rat joint model of chronic pain at 10 mg/kg, po BID for 5 days; assay type: ADME, organism-based; design: dose 10 mg/kg, route oral; details: read-out: Drug uptake
[21] = Drug level in blood of rat joint model of chronic pain at 3 mg/kg, po BID for 5 days; assay type: ADME, organism-based; design: dose 3 mg/kg, route oral; details: read-out: Drug uptake
Rattus norvegicus [22] = test: Induction of hypothermia in rat at 130 mg/kg, po after 1 to 5 hrs; assay type: organism-based; design: dose 130 mg/kg, route oral; details: in vivo
[23] = Drug level in rat blood at 130 mg/kg, po after 1 hr; assay type: ADME, organism-based; design: dose 130 mg/kg, route oral; details: read-out: Drug uptake
[24] = Drug level in rat blood at 130 mg/kg, po after 3 hrs; assay type: ADME, organism-based; design: dose 130 mg/kg, route oral; details: read-out: Drug uptake
[25] = Ratio of drug level in brain to blood in rat 130 mg/kg, po after 1 hr; assay type: ADME, organism-based; design: dose 130 mg/kg, route oral
Cannabinoid receptor 1 = Cannabinoid receptor 1 (Homo sapiens, UniProt P21554); test: Agonist activity at human recombinant cannabinoid CB1 receptor expressed in MMY23 Saccharomyces cerevisiae assessed as degradation of FDGlu to fluorescein after 24 hrs by spectrofluorimetry relative to HU210; assay type: functional
Cannabinoid receptor 2 [26] = target: T1, Cannabinoid receptor 2 (Homo sapiens, UniProt P34972); test: Agonist activity at human recombinant cannabinoid CB2 receptor expressed in MMY23 Saccharomyces cerevisiae assessed as degradation of FDGlu to fluorescein after 24 hrs by spectrofluorimetry; assay type: functional
Cannabinoid receptor 2 [27] = target: T1, Cannabinoid receptor 2; test: Agonist activity at human recombinant cannabinoid CB2 receptor expressed in MMY23 Saccharomyces cerevisiae assessed as degradation of FDGlu to fluorescein after 24 hrs by spectrofluorimetry relative to HU210; assay type: functional
[28] = Intrinsic clearance in human liver microsomes; assay type: ADME, Microsome
[29] = Intrinsic clearance in rat liver microsomes; assay type: ADME, Microsome
Cytochrome P450 2C19 = Cytochrome P450 2C19 (Homo sapiens, UniProt P33261); test: Inhibition of CYP2C19; assay type: ADME
Cytochrome P450 2D6 = Cytochrome P450 2D6 (Homo sapiens, UniProt P10635); test: Inhibition of CYP2D6; assay type: ADME
Cytochrome P450 3A4 = Cytochrome P450 3A4 (Homo sapiens, UniProt P08684); test: Inhibition of CYP3A4; assay type: ADME
[30] = Solubility in simulated intestinal fluid at pH 5; assay type: physicochemical
[31] = Dissociation constant, pKa of the compound; assay type: physicochemical
Rattus norvegicus [32] = test: Antihyperalgesic activity in po dosed complete Freund's adjuvant rat model of inflammatory pain assessed as reduction of hypersensitivity administered as single dose; assay type: functional
[33] = Efflux ratio of apparent permeability […] side of MDR1-expressing MDCK2 cells after 60 mins by liquid scintillation counting; assay type: ADME, cell-based, Canis lupus familiaris; details: dog, mdck-ii, 1 h
Cannabinoid receptor 2 [34] = target: T1, Cannabinoid receptor 2; test: Agonist activity at human recombinant cannabinoid CB2 receptor expressed in CHOK1 cells assessed as forskolin-induced cAMP production at 20 uM by luciferase assay relative to HU210; assay type: functional, cell-based; details: CHO-K1
[35] = target: Alpha-2A adrenergic receptor (Homo sapiens) (UniProt P08913); test: Binding affinity to adrenergic alpha2 receptor at 1 uM
[36] = target: Kappa-type opioid receptor (Homo sapiens) (UniProt P41145); test: Binding affinity to kappa opioid receptor at 1 uM
[37] = target: 5-hydroxytryptamine receptor 1A (Homo sapiens) (UniProt P08908); test: Binding affinity to 5HT1A receptor at 1 uM
[38] = target: 5-hydroxytryptamine receptor 5A (Homo sapiens) (UniProt P47898); test: Binding affinity to 5HT5A receptor at 1 uM
[39] = target: Sodium-dependent noradrenaline transporter (Homo sapiens) (UniProt P23975); test: Binding affinity to NET at 1 uM
[40] = target: Adenosine receptor A1 (Homo sapiens) (UniProt P30542); test: Binding affinity to human adenosine A1 receptor at 1 uM
[41] = target: Adenosine receptor A3 (Homo sapiens) (UniProt P0DMS8); test: Binding affinity to human adenosine A3 receptor at 1 uM
[42] = target: Cholecystokinin receptor type A (Homo sapiens) (UniProt P32238); test: Binding affinity to human CCKA receptor at 1 uM
[43] = Ratio of drug level in brain to blood in rat 130 mg/kg, po after 3 hrs; assay type: ADME, organism-based; design: dose 130 mg/kg, route oral
[44] = Ratio of drug level in brain to blood in rat 130 mg/kg, po after 5 hrs; assay type: ADME, organism-based; design: dose 130 mg/kg, route oral

T1 sequence (P34972 whole entry): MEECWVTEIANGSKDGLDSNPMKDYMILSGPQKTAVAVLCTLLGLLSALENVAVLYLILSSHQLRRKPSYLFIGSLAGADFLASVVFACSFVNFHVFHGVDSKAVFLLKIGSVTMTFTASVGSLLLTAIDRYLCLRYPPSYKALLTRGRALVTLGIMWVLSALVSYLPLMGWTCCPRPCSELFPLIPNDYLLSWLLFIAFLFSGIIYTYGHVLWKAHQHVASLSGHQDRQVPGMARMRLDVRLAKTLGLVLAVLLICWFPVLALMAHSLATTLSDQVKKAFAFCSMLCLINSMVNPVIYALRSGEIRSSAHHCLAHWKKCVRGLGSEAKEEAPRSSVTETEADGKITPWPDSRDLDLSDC
Sequence of Cannabinoid receptor 1 (P21554 whole entry): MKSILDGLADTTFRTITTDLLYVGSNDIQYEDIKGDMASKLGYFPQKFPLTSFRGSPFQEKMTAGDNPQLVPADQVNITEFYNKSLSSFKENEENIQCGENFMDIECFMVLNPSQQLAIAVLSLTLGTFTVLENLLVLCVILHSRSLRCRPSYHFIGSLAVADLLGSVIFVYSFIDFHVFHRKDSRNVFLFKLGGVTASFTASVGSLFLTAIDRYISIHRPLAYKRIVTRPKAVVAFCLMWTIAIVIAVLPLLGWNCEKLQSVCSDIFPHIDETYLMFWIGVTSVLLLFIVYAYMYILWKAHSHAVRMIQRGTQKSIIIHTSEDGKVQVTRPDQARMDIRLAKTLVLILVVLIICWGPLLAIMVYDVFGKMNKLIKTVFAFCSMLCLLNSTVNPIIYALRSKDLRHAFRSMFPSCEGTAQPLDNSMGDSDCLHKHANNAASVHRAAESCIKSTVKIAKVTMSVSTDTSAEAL
Sequence of Sodium-dependent noradrenaline transporter (Homo sapiens) (P23975 whole entry): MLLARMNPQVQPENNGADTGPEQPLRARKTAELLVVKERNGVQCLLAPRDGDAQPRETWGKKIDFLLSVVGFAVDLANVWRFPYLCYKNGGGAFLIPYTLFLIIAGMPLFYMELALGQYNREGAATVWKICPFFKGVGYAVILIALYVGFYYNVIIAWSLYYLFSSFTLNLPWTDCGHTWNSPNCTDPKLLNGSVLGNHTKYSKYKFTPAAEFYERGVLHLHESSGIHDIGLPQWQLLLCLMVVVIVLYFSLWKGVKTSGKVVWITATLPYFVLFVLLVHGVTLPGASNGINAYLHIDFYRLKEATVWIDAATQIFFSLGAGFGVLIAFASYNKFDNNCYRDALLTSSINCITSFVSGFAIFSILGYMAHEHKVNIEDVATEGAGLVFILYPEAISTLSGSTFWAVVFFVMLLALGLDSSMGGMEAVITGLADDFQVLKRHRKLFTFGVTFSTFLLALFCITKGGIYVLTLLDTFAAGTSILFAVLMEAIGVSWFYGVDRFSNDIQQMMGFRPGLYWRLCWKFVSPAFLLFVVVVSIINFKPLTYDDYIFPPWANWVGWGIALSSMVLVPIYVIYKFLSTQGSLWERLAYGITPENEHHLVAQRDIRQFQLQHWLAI
Sequence of Adenosine receptor A1 (Homo sapiens) (P30542 whole entry): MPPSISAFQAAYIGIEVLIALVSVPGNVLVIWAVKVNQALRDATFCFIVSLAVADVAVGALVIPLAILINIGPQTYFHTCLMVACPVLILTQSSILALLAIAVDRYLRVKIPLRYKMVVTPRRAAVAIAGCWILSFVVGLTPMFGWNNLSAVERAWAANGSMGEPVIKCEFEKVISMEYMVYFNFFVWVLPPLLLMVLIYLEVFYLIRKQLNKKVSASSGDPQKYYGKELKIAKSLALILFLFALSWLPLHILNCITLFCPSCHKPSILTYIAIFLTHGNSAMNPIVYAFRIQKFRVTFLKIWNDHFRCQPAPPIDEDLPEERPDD
Sequence of Adenosine receptor A3 (Homo sapiens) (P0DMS8 whole entry): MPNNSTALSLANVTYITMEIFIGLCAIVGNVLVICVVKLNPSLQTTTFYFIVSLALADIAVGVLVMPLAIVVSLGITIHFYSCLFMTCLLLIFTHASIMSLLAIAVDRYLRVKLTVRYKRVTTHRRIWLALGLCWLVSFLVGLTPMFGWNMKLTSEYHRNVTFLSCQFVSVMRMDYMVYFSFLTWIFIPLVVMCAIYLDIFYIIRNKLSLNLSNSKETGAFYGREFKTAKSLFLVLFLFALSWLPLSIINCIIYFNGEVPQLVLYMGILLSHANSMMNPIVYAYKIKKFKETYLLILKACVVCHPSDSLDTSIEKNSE
Sequence of Substance-K receptor (Homo sapiens) (P21452 whole entry): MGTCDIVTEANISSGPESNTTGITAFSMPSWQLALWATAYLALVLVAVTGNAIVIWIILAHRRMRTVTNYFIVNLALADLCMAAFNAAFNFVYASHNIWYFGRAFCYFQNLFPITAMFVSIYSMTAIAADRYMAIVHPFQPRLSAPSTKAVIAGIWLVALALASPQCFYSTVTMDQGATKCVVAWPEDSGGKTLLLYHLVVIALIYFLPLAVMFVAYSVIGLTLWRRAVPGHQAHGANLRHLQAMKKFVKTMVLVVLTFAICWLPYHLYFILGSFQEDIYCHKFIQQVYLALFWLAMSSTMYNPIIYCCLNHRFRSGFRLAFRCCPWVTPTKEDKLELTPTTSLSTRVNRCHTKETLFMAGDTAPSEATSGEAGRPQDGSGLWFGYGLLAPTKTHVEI
Sequence of 5-hydroxytryptamine receptor 5A (Homo sapiens) (P47898 whole entry): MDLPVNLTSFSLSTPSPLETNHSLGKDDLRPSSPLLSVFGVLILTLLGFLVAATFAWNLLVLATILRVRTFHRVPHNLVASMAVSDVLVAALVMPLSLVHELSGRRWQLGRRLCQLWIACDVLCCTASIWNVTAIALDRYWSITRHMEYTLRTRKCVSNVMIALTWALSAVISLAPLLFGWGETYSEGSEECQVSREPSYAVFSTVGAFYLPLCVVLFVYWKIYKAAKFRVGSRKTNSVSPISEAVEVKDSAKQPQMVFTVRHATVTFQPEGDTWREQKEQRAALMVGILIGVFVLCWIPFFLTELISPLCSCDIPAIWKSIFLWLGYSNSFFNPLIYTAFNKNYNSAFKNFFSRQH
Sequence of Melatonin receptor type 1A (Homo sapiens) (P48039 whole entry): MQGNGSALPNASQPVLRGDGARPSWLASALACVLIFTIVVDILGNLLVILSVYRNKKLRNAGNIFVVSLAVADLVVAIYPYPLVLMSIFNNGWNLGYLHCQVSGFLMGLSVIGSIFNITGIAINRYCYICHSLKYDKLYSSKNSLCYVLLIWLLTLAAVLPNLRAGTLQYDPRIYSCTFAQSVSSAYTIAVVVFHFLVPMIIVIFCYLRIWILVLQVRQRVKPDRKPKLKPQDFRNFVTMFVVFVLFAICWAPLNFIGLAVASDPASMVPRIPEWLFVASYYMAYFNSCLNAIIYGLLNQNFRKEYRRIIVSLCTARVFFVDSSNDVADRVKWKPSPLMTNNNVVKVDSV
Sequence of Alpha-2A adrenergic receptor (Homo sapiens) (P08913 whole entry): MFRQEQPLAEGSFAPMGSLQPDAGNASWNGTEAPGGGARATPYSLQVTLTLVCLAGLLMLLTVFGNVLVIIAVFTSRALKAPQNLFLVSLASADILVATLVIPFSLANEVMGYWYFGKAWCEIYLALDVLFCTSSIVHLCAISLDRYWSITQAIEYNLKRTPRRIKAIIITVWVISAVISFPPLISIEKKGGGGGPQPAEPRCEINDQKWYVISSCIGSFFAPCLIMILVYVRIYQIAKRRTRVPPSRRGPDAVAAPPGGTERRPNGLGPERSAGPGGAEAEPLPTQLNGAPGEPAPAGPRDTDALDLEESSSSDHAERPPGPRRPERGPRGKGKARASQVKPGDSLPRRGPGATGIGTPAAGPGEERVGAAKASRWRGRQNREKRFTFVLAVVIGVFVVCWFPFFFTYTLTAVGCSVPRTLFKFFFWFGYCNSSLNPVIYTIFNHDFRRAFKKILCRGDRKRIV
Sequence of 5-hydroxytryptamine receptor 1A (Homo sapiens) (P08908 whole entry): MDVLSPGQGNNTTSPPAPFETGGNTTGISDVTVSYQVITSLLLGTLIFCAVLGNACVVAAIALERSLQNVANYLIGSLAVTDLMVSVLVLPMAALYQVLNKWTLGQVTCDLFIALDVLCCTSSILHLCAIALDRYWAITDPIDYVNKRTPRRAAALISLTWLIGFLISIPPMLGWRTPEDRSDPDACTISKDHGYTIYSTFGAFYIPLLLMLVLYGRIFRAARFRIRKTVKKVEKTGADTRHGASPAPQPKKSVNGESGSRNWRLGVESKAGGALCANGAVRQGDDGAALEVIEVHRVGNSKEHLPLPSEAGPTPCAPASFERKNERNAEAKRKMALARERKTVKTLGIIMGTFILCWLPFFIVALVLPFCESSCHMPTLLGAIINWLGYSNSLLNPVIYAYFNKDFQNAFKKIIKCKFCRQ
Sequence of Cytochrome P450 2C19 (P33261 whole entry): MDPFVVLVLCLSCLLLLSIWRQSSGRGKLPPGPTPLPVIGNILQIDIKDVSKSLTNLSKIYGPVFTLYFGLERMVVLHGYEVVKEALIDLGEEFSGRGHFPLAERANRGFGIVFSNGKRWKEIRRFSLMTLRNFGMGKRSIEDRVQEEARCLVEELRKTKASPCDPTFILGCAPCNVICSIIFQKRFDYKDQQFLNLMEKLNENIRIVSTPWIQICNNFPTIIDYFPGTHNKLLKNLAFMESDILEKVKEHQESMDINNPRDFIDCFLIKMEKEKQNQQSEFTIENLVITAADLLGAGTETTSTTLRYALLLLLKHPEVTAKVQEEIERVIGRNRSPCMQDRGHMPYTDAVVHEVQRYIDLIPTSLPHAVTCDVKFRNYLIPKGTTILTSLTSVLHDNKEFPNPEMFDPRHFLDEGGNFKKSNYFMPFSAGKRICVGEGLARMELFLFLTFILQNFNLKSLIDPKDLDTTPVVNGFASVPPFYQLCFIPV
Sequence of Melanocortin receptor 4 (Homo sapiens) (P32245 whole entry): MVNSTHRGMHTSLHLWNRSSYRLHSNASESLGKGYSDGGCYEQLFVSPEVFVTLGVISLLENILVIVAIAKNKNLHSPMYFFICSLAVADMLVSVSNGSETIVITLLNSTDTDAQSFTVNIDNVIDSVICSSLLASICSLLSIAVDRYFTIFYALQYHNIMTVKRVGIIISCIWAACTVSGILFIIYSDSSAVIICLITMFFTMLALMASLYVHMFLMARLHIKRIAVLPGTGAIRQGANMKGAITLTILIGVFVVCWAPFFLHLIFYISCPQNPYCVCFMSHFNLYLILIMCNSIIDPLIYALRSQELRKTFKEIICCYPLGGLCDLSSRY

SMILES: Cn1ccc2c(Nc3cccc(Cl)c3)ncc(C(=O)N3CCOCC3)c21
- Activity [1]: < 10%
- Activity [2]: < 10%
- Activity [3]: < 10%
- Activity [4]: < 10%
- Activity [5]: < 10%
- Activity [6]: < 10%
- Activity [7]: < 10%
- Activity [8]: < 10%
- Activity [9]: < 10%
- Activity [10]: < 10%
- Activity [11]: < 10%
- bioavailability [12]: 82%
- concentration at 0.8 h [13]: 1100 nM
- Activity (Rattus norvegicus [14]): Active
- concentration at 1 h [15]: 97 nM
- Activity (Rattus norvegicus [16]): Active
- Activity (Rattus norvegicus [17]): Active
- Kp at 12 h [18]: 1.04
- Activity (Rattus norvegicus [19]): Active
- concentration at 120 h [20]: 6.1 µM
- concentration at 120 h [21]: 1800 nM
- Activity (Rattus norvegicus [22]): Non-toxic
- concentration at 1 h [23]: 8.6 µM
- concentration at 3 h [24]: 10 µM
- Kp at 1 h [25]: 1
- Efficacy (Cannabinoid receptor 1): 88%
- EC50 (Cannabinoid receptor 2 [26]): 5 nM
- Efficacy (Cannabinoid receptor 2 [27]): 91%
- CLint scaled [28]: < 0.6 mL/min/kg
- CLint scaled [29]: < 0.8 mL/min/kg
- IC50 (Cytochrome P450 2C19): 41 µM
- IC50 (Cytochrome P450 2D6): 21 µM
- IC50 (Cytochrome P450 3A4): 24 µM
- solubility [30]: 590 µg/mL (≈ 1590 µM)
- pKa [31]: 6.1
- ED50 (Rattus norvegicus [32]): 0.02 mg/kg
- Ratio [33]: 2.9
- Efficacy (Cannabinoid receptor 2 [34]): 100%
- Activity [35]: 25%
- Activity [36]: 11%
- Activity [37]: 24%
- Activity [38]: 15%
- Activity [39]: 15%
- Activity [40]: < 10%
- Activity [41]: < 10%
- Activity [42]: < 10%
- Kp at 3 h [43]: 1
- Kp at 5 h [44]: 1
